Assays:
Acute toxicity = format: in vivo; settings: maximum doses used (50 mg/kg per os)
hyperlipemic rat = assay: Cholesterol-reducing effect: test on the hyperlipemic rat; format: in vivo; settings: 50 mgm/kg by esophageal tube on two successive days, serum 24 hours after final administration
Experimental: (§1) 1. Cholesterol-reducing effect
(a) Test on the hyperlipemic rat: Literatur: P. E. Schurr et al., Atherosclerosis Drug Discovery (1976), published by C. E. Day; Plenum, New York, page 215.
Young male rats with an average body weight of 100 gm were made hypercholesterolemic by feeding them for 4 days on a diet consisting of 10% coconut oil, 1.5% cholesterol, 0.5% cholic acid, 0.2% choline chloride and 15% sucrose. While continuing with the diet, the test compound was administered in a methyl cellulose suspension by esophageal tube on two successive days. The animals were then made to fast overnight and 24 hours after the final administration of the test compound a blood sample was taken in order to obtain serum.
In the serum, the total cholesterol was determined enzymatically (Boehringer Mannheim Test Combination 126 039) and the β-lipoproteinswere determined by nephelometry, after precipitation with Ca^++ and heparin, in the Autoanalyzer. The percentage reduction was calculated by comparison with a control group: […]

normolipemic rat = assay: Cholesterol-reducing effect: test on the normolipemic rat; format: in vivo; settings: 1.1 mg/kg (A) or 20.0 mg/kg (B), by esophageal tube twice with interval of 20 hours, serum after 28 and 44 hours
Experimental: as §1
(b) Test on the normolipemic rat:
Male normolipemic rats with an average body weights of 250 to 300 gm were given the test compound by esophageal tube twice with an interval of 20 hours. At the start of the test, the animals were deprived of food but had free access to drinking water. The serum cholesterol levels were determined enzymatically (Boehringer Mannheim Test Combination 126.039) after 28 and 44 hours. The percentage reduction was calculated in comparison with a control group: […]

[1] = system: thrombocytes of healthy human test subjects; assay: Adenosine-potentiating effect in the Born Test (thrombocyte aggregation); format: cell-based; settings: n = 4; for mm height of curve (Born test): control 114
thrombocyte aggregation = assay: Prostacycline-reinforcing effect after oral administration in animals (Born Test on blood sample); format: in vivo, rat
Experimental: (§2) (a) The thrombocytes of healthy human test subjects were incubated for 10 minutes at 37° C. with the test substance (final concentration: 1×10^-4 mol/l). Then, aggregation was initiated with collagen in the Born test in the usual way. Shortly before aggregation was initiated, a small quantity of supernatant liquid containing prostacycline, which was obtained from rings of aorta placed in the TRIS buffer, was added to the test sample. The quantity of supernatant liquid containing prostacycline was selected so that on its own it had little or no inhibiting effect. The sample incubated with the substance reacted with PGI2 to give an inhibition of aggregation which was more than additive.
(c) Prostacycline-reinforcing effect after oral administration in animals:
Rats weighing 450 gm were given the compound orally at a dose of 20 mg/kg; then, after one hour, a blood sample was taken and the Born Test was carried out as described above.

[2] = system: thrombocytes of healthy human test subjects; assay: Born test: collagen-induced thrombocyte aggregation, with and without PGI2 (in vitro); format: cell-based; settings: n = 4; for inhibition at 100 µM: Homo sapiens; for mm height of curve (Born test): control 129
Experimental: as §2, with “2. Antithrombotic Activity: (a)” for “(a)”

[3] = PRP + compound C alone (1 × 10^-4)
[4] = PRP + compound C (1×10^-4 mol/l) + PGI2, collagen
[5] = PRP + compound C alone, 1×10^-4 mol/l, collagen

## CCCCCCCCCCCCN1CCc2cc(C(=O)[O-])sc2CC1.[Na+]
Acute toxicity
  toxic side effects: no toxic side effects were observed
Hyperlipemic rat
  Percentage reduction compared with controls: Cholesterol in the serum: -21%
  Percentage reduction compared with controls: β-lipoproteins in the serum: -51%
Normolipemic rat
  Percentage reduction compared with control: Total cholesterol in the serum: -20%

## Cl.O=C(O)c1cc2c(s1)CCN(Cc1ccccc1)CC2 [A, 6-Benzyl-5,6,7,8-tetrahydro-4H-thieno[2,3-d]azepine-2-carboxylic acid hydrochloride]
Acute toxicity
  toxic side effects: no toxic side effects were observed
Normolipemic rat
  Percentage reduction compared with control: Total cholesterol in the serum: -26%

## Cl.Clc1ccccc1CN1CCc2ccsc2CC1 [C, 6-(2-Chlorobenzyl)-5,6,7,8-tetrahydro-4H-thieno[2,3-d]azepine hydrochloride]
[1]; PRP + compound C + adenosine
  % inhibition of thrombocyte aggregation: 61%
  mm height of curve (Born test): 44 mm
[1]; [3]
  % inhibition of thrombocyte aggregation: 33%
  mm height of curve (Born test): 75 mm
Acute toxicity
  toxic side effects: no toxic side effects were observed
Thrombocyte aggregation; rats treated with 20 mg/kg per os of compound C, blood sample after one hour, without PGI2, averages from three sets of tests on four animals
  inhibition of aggregation: 4%
Thrombocyte aggregation; rats treated with compound C, 20 mg/kg per os, blood sample after one hour, + PGI2
  inhibition of aggregation: 100%
[2]; [4]
  inhibition at 100 µM: 69%
  mm height of curve (Born test): 38 mm
[2]; [5]
  inhibition at 100 µM: 20.7%
  mm height of curve (Born test): 101 mm

## Nc1ncnc2c1ncn2[C@@H]1O[C@H](CO)[C@@H](O)[C@H]1O [adenosine, reference compound]
[1]; PRP + adenosine alone
  % inhibition of thrombocyte aggregation: 20%
  mm height of curve (Born test): 91 mm

## PGI2 [reference compound]
Thrombocyte aggregation; plasma of control animals + PGI2
  inhibition of aggregation: 20%
[2]; PRP + PGI2 alone, collagen
  % inhibition of thrombocyte aggregation: 30%
  mm height of curve (Born test): 90 mm
